Assay results reported in ChEMBL document CHEMBL3232715, “Recent progress in the identification of BRAF inhibitors as anti-cancer agents” (Eur J Med Chem, 2014).

How the values were obtained:
[1] = target: T1, Serine/threonine-protein kinase B-raf (Homo sapiens, UniProt P15056, V600E); experiment: Inhibition of BRAF V600E mutant-mediated MEK phosphorylation in human HT-29 cells by Western blotting analysis; assay type: cell-based
[2] = target: T2, Serine/threonine-protein kinase B-raf (Homo sapiens, UniProt P15056); experiment: Inhibition of BRAF (unknown origin)
T2 sequence (P15056 whole entry): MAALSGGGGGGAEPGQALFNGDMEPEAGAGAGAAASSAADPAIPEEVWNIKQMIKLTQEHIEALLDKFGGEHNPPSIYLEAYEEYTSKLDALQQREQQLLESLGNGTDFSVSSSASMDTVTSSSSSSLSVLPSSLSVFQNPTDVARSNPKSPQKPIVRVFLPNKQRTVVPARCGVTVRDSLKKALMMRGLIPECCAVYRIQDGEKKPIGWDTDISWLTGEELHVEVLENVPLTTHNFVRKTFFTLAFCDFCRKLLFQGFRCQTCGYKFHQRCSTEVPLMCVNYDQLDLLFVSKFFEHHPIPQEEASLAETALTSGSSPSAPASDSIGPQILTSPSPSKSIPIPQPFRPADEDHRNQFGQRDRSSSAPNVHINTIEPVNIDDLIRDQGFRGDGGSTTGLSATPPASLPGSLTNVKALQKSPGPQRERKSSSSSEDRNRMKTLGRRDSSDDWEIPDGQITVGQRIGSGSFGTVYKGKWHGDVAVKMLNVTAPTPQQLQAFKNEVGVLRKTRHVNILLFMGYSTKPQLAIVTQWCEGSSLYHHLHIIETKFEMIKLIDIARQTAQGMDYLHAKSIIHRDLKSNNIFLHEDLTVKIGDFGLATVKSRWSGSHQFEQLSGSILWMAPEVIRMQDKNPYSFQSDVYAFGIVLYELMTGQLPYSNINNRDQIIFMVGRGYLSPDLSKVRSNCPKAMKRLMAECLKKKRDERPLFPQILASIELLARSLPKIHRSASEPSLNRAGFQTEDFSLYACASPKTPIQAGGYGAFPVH

[3] = target: T2, Serine/threonine-protein kinase B-raf; experiment: Inhibition of N-terminal 6X-His tagged human wild-type BRAF by ELISA
[4] = target: T1, Serine/threonine-protein kinase B-raf; experiment: Inhibition of N-terminal 6X-His tagged human BRAF V600E mutant (433 to 726) by ELISA
[5] = Antiproliferative activity against human WM266.4 cells; assay type: functional, cell-based; settings: WM 266-4
[6] = target: T1, Serine/threonine-protein kinase B-raf; experiment: Inhibition of BRAF V600E mutant (unknown origin)
[7] = test system: A-375; experiment: Antiproliferative activity against human A375 cells; assay type: functional, cell-based
[8] = target: T2, Serine/threonine-protein kinase B-raf; experiment: Inhibition of BRAF (unknown origin)-mediated ERK phosphorylation

T1 sequence (P15056 2-766 V600E limits assumed): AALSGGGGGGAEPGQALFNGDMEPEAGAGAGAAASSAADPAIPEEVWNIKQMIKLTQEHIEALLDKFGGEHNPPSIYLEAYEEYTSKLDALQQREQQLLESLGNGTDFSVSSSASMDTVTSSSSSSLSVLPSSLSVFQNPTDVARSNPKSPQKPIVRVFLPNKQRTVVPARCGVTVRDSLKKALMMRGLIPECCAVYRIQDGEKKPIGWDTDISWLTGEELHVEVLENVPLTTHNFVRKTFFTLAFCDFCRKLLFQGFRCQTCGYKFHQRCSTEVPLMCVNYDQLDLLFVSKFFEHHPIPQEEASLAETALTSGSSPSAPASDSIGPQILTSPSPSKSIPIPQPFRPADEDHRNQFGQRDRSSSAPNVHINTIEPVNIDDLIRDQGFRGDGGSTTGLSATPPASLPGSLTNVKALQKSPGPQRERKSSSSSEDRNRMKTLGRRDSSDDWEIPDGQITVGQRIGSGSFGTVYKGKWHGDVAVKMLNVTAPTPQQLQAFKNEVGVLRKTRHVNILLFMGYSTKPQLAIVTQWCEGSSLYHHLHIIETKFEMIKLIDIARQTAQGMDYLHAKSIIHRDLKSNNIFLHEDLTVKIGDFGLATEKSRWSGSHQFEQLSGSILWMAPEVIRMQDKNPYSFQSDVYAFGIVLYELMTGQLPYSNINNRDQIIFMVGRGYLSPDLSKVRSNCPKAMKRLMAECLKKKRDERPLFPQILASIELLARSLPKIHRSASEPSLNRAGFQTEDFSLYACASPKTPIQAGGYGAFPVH

Q: Which IC50 [1] does the source give for `O=C(Nc1cccc(Oc2ccc3nc(NC(=O)C4CCOCC4)cn3n2)c1)c1cccc(C(F)(F)F)c1` here?
A: 3800 nM

Q: What about the IC50 [2] of the same molecule?
A: 43 nM

Q: For `O=C1NC(=S)NC(=O)C1=Cc1ccc(-c2ccc3c(c2)OCO3)o1`, which IC50 [3] is on record?
A: 1150 nM

Q: What about the IC50 [4] of the same molecule?
A: 300 nM

Q: What does the source list for `O=C(Nc1ccccc1)N(Cc1ccc(Br)cc1O)c1cc(-c2ccccc2)[nH]n1`?
A: IC50 [5]: 1500 nM; IC50 [6]: 190 nM; IC50 [7]: 1320 nM

Q: Which IC50 [8] does the source give for `O/N=C1\CCc2cc(-c3cn(C4CCNCC4)nc3-c3ccncc3)ccc21` here?
A: 9 nM
